Converted amounts (≈) assume the structure as drawn. “Also recorded” adds a separate entry of the source. Peptide text beside a SMILES is read from it.
Legend:
Format in all cases: cell-based
[1] = tested on: E. coli, S. enteritidis, P. aeruginosa, L. monocytogenes, S. aureus, E. faecalis, K. pneumoniae and A. baumannii; experiment: Antimicrobial activity assay, spectrum over the eight tested pathogenic bacteria; details: 3 h treatment of ~10^7 log phase bacteria, peptides 25 to 0.8 µM; active = MBC ≤25 µM
In short: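 MBC taken as the lowest peptide concentration leaving no viable bacteria after 3 h exposure of ~10^7 log-phase cells. Peptides tested by 2-fold serial dilution, 25 µM down to 0.8 µM, in PPB (pH 7.4). Gram-positive and Gram-negative reference strains from ATCC, NCTC and HNCMO collections.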

[2] = tested on: Acinetobacter baumannii (ATCC 17978); experiment: microbe, parasite or virus in culture; details: ATCC 17978, 3 h
In short: (§1)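 Complete loss of viable bacteria after 3 h defined the MBC. Two-fold peptide series, 25 µM top concentration, ~10^7 log-phase cells in potassium-phosphate buffer pH 7.4.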

[3] = tested on: Enterococcus faecalis (ATCC 29212)
In short: as §1

[4] = tested on: Listeria monocytogenes (ATCC 19111); details: ATCC 19111, 3 h
In short: as §1

[5] = tested on: Escherichia coli (ATCC 8739); details: ATCC 8739, 3 h
In short: as §1

[6] = tested on: Klebsiella pneumoniae (NCTC 13440); details: NCTC 13440, 3 h
In short: as §1

[7] = tested on: Pseudomonas aeruginosa (ATCC 27853); details: ATCC 27853, 3 h
In short: as §1

[8] = tested on: Staphylococcus aureus (HNCMO112011); details: HNCMO112011, 3 h
In short: as §1

[9] = tested on: Salmonella enterica (ATCC 13076); details: ATCC 13076, 3 h
In short: as §1

Row | SMILES | Antibacterial spectrum over the eight tested bacterial strains [1] | MBC Acinetobacter baumannii [2] | Ability to kill E. faecalis ([3]; 3 h, ~10^7 log phase bacteria, peptides ≤25 µM) | MBC Enterococcus faecalis ([3]; ATCC 29212, 3 h) | MBC Listeria monocytogenes [4] | MBC Escherichia coli [5] | MBC Klebsiella pneumoniae [6] | MBC Pseudomonas aeruginosa [7] | MBC Staphylococcus aureus [8] | MBC Salmonella enterica [9]
1 | CC[C@H](C)[C@H](NC(=O)[C@H](CCC(N)=O)NC(=O)[C@H](CCCCN)NC(=O)[C@H](CCCNC(=N)N)NC(=O)[C@@H](NC(=O)[C@H](Cc1ccccc1)NC(=O)[C@H](Cc1ccccc1)NC(=O)[C@H](Cc1ccc(O)cc1)NC(=O)[C@H](Cc1c[nH]cn1)NC(=O)[C@H](CS)NC(=O)[C@H](Cc1ccccc1)NC(=O)[C@H](CCCCN)NC(=O)CNC(=O)[C@@H](NC(=O)[C@H](CS)NC(=O)[C@H](CCSC)NC(=O)[C@H](CCSC)NC(=O)[C@@H](NC(=O)[C@@H](NC(=O)[C@@H]1CCCN1C(=O)[C@H](CCCCN)NC(=O)[C@@H](NC(=O)[C@@H](NC(=O)[C@H](CCCCN)NC(=O)[C@@H]1CCCN1C(=O)[C@H](CS)NC(=O)[C@H](CC(=O)O)NC(=O)[C@H](CC(=O)O)NC(=O)[C@@H](NC(=O)[C@@H](NC(=O)[C@H](C)NC(=O)[C@H](CS)NC(=O)[C@H](CCCNC(=N)N)NC(=O)[C@@H](NC(=O)[C@H](CC(=O)O)NC(=O)[C@H](CC(C)C)NC(=O)[C@H](CCCCN)NC(=O)[C@@H](N)CCC(=O)O)[C@@H](C)CC)[C@@H](C)O)C(C)C)C(C)C)[C@@H](C)O)C(C)C)C(C)C)[C@@H](C)O)C(C)C)C(=O)N[C@@H](CC(C)C)C(=O)O [NCR073] (H-EKLDIRCATVDDCPKVTKPVVMMCTGKFCHYFFVRKQIL-OH; N-terminus assumed) | capable of killing all tested bacteria; also recorded: active against all the eight tested pathogens | 1.6 µM (≈ 7.3 µg/mL) | able to kill | 6.25 µM (≈ 28.5 µg/mL) | 6.25 µM (≈ 28.5 µg/mL) | 3.125 µM (≈ 14.3 µg/mL) | 6.25 µM (≈ 28.5 µg/mL) | 6.25 µM (≈ 28.5 µg/mL) | 6.25 µM (≈ 28.5 µg/mL) | 6.25 µM (≈ 28.5 µg/mL)
2 | CSCC[C@H](NC(=O)[C@H](Cc1ccccc1)NC(=O)[C@H](CCCCN)NC(=O)[C@@H]1CCCN1C(=O)[C@H](CS)NC(=O)[C@H](CCCNC(=N)N)NC(=O)CNC(=O)[C@H](CC(=O)O)NC(=O)[C@H](CCCNC(=N)N)NC(=O)CNC(=O)[C@H](CS)NC(=O)[C@H](CC(C)C)NC(=O)[C@@H](NC(=O)[C@H](CCCNC(=N)N)NC(=O)[C@@H](N)CCSC)C(C)C)C(=O)N[C@@H](CS)C(=O)N[C@@H](CCCNC(=N)N)C(=O)N[C@H](C(=O)N[C@@H](Cc1ccccc1)C(=O)N[C@@H](CC(C)C)C(=O)O)[C@@H](C)O [NCR280] (H-MRVLCGRDGRCPKFMCRTFL-OH; N-terminus assumed) | active against all strains except S. aureus and E. faecalis | 1.6 µM (≈ 3.82 µg/mL) |  |  | 3.125 µM (≈ 7.47 µg/mL) | 3.125 µM (≈ 7.47 µg/mL) | 25 µM (≈ 59.8 µg/mL) | 12.5 µM (≈ 29.9 µg/mL) |  | 3.125 µM (≈ 7.47 µg/mL)
3 | CC[C@H](C)[C@H](NC(=O)[C@H](CC(C)C)NC(=O)[C@H](CC(N)=O)NC(=O)[C@@H](NC(=O)[C@H](CS)NC(=O)[C@H](Cc1ccc(O)cc1)NC(=O)CNC(=O)[C@H](CCCCN)NC(=O)[C@H](CCCNC(=N)N)NC(=O)[C@H](CS)NC(=O)[C@H](CCCNC(=N)N)NC(=O)[C@@H](NC(=O)[C@H](CC(N)=O)NC(=O)[C@H](CCSC)NC(=O)CNC(=O)[C@H](C)NC(=O)[C@H](CCCNC(=N)N)NC(=O)[C@H](CCCNC(=N)N)NC(=O)[C@@H](NC(=O)[C@H](CS)NC(=O)[C@H](CC(=O)O)NC(=O)[C@H](CCCCN)NC(=O)[C@H](CC(=O)O)NC(=O)[C@@H](NC(=O)[C@@H](NC(=O)[C@H](CS)NC(=O)[C@@H]1CCCN1C(=O)[C@H](CC(N)=O)NC(=O)[C@@H]1CCCN1C(=O)[C@@H](NC(=O)[C@H](Cc1c[nH]cn1)NC(=O)[C@H](CO)NC(=O)[C@H](Cc1ccc(O)cc1)NC(=O)[C@@H](N)Cc1ccccc1)C(C)C)[C@@H](C)CC)[C@@H](C)O)[C@@H](C)CC)[C@@H](C)CC)C(C)C)C(=O)N[C@@H](CC(C)C)C(=O)N[C@@H](CCCNC(=N)N)C(=O)O [NCR700] (H-FYSHVPNPCITDKDCIRRAGMNIRCRKGYCVNLILR-OH; N-terminus assumed) | active against all strains except S. aureus and E. faecalis | 1.6 µM (≈ 6.76 µg/mL) |  |  | 1.6 µM (≈ 6.76 µg/mL) | 3.125 µM (≈ 13.2 µg/mL) | 12.5 µM (≈ 52.8 µg/mL) | 6.25 µM (≈ 26.4 µg/mL) |  | 12.5 µM (≈ 52.8 µg/mL)
4 | CC(C)C[C@H](NC(=O)[C@H](CS)NC(=O)[C@H](CCCCN)NC(=O)CNC(=O)[C@@H](N)Cc1ccccc1)C(=O)N[C@@H](CCCCN)C(=O)N[C@@H](CC(C)C)C(=O)N[C@@H](CCCCN)C(=O)N[C@@H](CS)C(=O)N[C@H](C(=O)N[C@@H](Cc1ccc(O)cc1)C(=O)N[C@H](C(=O)N1CCC[C@H]1C(=O)N[C@@H](CCCCN)C(=O)N[C@@H](CCCNC(=N)N)C(N)=O)[C@@H](C)O)C(C)C [GoNCR308 (16-30)] (H-FGKCLKLKCVYTPKR-NH2; N-terminus assumed) |  | 3.125 µM (≈ 5.57 µg/mL) |  |  |  | 3.125 µM (≈ 5.57 µg/mL) | 25 µM (≈ 44.6 µg/mL) | 3.125 µM (≈ 5.57 µg/mL) | 50 µM (≈ 89.2 µg/mL) | 3.125 µM (≈ 5.57 µg/mL)
5 | CC[C@H](C)[C@H](NC(=O)[C@H](CC(N)=O)NC(=O)[C@H](Cc1ccc(O)cc1)NC(=O)[C@H](CCCCN)NC(=O)[C@H](CCCCN)NC(=O)[C@H](Cc1ccccc1)NC(=O)[C@H](CCCCN)NC(=O)[C@@H]1CCCN1C(=O)[C@H](CS)NC(=O)[C@H](CC(=O)O)NC(=O)[C@H](CCCCN)NC(=O)[C@H](CC(=O)O)NC(=O)[C@@H](NC(=O)[C@@H](NC(=O)[C@H](CS)NC(=O)[C@H](Cc1ccc(O)cc1)NC(=O)[C@H](CCC(N)=O)NC(=O)[C@H](CCCNC(=N)N)NC(=O)[C@@H](NC(=O)[C@H](CC(C)C)NC(=O)[C@@H]1CCCN1C(=O)[C@H](CC(N)=O)NC(=O)[C@H](Cc1ccccc1)NC(=O)[C@H](CO)NC(=O)[C@@H](N)CC(=O)O)[C@@H](C)CC)C(C)C)[C@@H](C)O)C(=O)N[C@@H](CCCNC(=N)N)C(=O)N[C@@H](CS)C(=O)N[C@@H](CCCNC(=N)N)C(=O)N[C@@H](CCCCN)C(=O)NCC(=O)N[C@@H](Cc1ccccc1)C(=O)N[C@@H](CS)C(=O)N[C@H](C(=O)N[C@@H](CCC(N)=O)C(=O)N[C@H](C(=O)N[C@@H](CC(N)=O)C(=O)NCC(=O)NCC(=O)O)C(C)C)C(C)C [NCR377] (H-DSFNPLIRQYCVTDKDCPKFKKYNIRCRKGFCVQVNGG-OH; N-terminus assumed) | kill all bacteria except E. faecalis | 6.25 µM (≈ 27.8 µg/mL) |  |  | 12.5 µM (≈ 55.5 µg/mL) | 3.125 µM (≈ 13.9 µg/mL) | 12.5 µM (≈ 55.5 µg/mL) | 3.125 µM (≈ 13.9 µg/mL) | 6.25 µM (≈ 27.8 µg/mL) | 6.25 µM (≈ 27.8 µg/mL)

From article PMC9218685, “Legume Plant Peptides as Sources of Novel Antimicrobial Molecules Against Human Pathogens” (Frontiers in Molecular Biosciences, 2022)
